Test results taken from patent EP0392802A2, “Preparation of urea analogues and their use in bronchial, cerebrovascular and neuronal disorders” (Beecham Group p.l.c., priority 1989, dated 1990).

Tested on: guinea pig tracheal spiral preparations
Experiment: Bronchodilation in vitro; guinea pig tracheal spiral preparations (relaxation of resting tension relative to isoprenaline)
Conditions: fall in tension as percentage of total relaxation evoked by 10⁻³M isoprenaline; cumulative dosing 10⁻⁸-2x10⁻⁵M; resting tension 2g; krebs solution at 37°C; read-out: IC₅₀
Protocol: Male guinea pigs (300-600g) were stunned by a blow to the head and bled from the carotid artery. The trachea was exposed, dissected free of connective tissue, and transferred to oxygenated krebs solution at 37 °C. Next, spirals (2 per trachea) were prepared by cutting the whole trachea spirally along its longitudinal axis and then dividing this spiral lengthwise. Each preparation was mounted, using silk thread, in a 10ml organ bath filled with krebs solution at 37 °C and bubbled with 5% CO₂ with O₂. The resting tension of the preparations was set at 2g and changes in muscle tension were monitored isometrically by means of a UFI (2oz) force and displacement transducer (Ormed Ltd) connected to a Linseis pen recorder. All preparations were allowed to equilibrate for 60 minutes. During this equilibration period the preparations were washed by upward displacement at 15 minute intervals and, if necessary, the resting tension was readjusted to 2g using a mechanical micromanipulator system.
Once a steady resting tension had been obtained, the preparations were dosed cumulatively with the test compound (10⁻⁸-2x10⁻⁵M), and finally a maximum relaxation achieved by addition of 10⁻³M isoprenaline.
The fall in tension evoked by the test compound was expressed as a percentage of the total relaxation evoked in the presence of 10⁻³M isoprenaline. […]

## CC(NC(=S)Nc1ccc(F)cc1)C(C)(C)C (racemic) [Example 3, (±)-N-4-Fluorophenyl-N′-1,2,2-trimethylprop-1-ylthiourea]
  IC50: 5.9 µM

## CC(NC(=NC#N)Nc1ccc(C#N)cc1)C(C)(C)C (racemic) [Example 4, (±)-N˝-Cyano-N-4-cyanophenyl-N′-1,2,2-trimethylprop-1-ylquanidine]
  IC50: 3 µM
